Reference: patent US11701361B2, “p110-delta inhibitors treat and prevent autoimmunity while sparing the ability to mount an immune response to exogenous immunogens” (THE REGENTS OF THE UNIVERSITY OF COLORADO, priority 2018, dated 2023)

Experiments:
[1] = tested on: splenic B cells from C57BL/6 mice; assay: BCR-mediated calcium flux in B cells; assay type: cell-based, mouse; conditions: 15 nM, 60 nM and 490 nM idelalisib added simultaneously with anti-Ig heavy and light chain F(ab′)2
Procedure: (§1) For measurements of intracellular free calcium concentration ([Ca^2+]i), RBC-depleted single-cell suspended splenocytes were simultaneously stained with CD8-PE (BD Biosciences), CD4-APC (BioLegend) or B220-PE and loaded with Indo-1 acetoxymethyl (Molecular Probes), as described previously (Gauld, et al., Nat Immunol 6: 1160-1167). For analysis of ([Ca^2+]i), cells were suspended at 10×10^6 cells/ml in warm IMDM+2% FBS in a 500 ul volume. […] Mean relative ([Ca^2+]i) was monitored over time using an LSR Fortessa X-20 (BD) with analysis using FlowJo software.

PLCγ = assay: phosphorylated signaling intermediaries after BCR stimulation: PLCγ; assay type: cell-based, mouse; conditions: all doses of inhibitor (15, 60, 490 nM), preincubation
Procedure: (§2) Cells are then washed 2× in serum free IMDM, and stimulated with 5 μg/ml of F(ab′)2 rabbit anti-mouse anti-IgG (H&L; Invitrogen) or 10 μg/ml anti-CD3-biotin (BD Biosciences)+20 μg/ml streptavidin (Sigma-Aldrich) for 2 minutes. Signaling was stopped by addition of 20% PFA to a final concentration of 2%, incubated at 37° C. for 15 minutes and resuspended in 100% ice-cold MeOH (directly from −80° C.). Cells were then placed on ice for 30 minutes and placed at −20° C. for storage. For analysis, cells were stained with B220-BV786, CD4-BV711, CD8-BV421, and/or pAKT-Alexa Fluor 647 (BD Biosciences), pPLCγ-PE (BD Biosciences), pBTK-BV421 (BD Biosciences) pSyk/Zap70-PE (BD Biosciences) at room temperature for 1 hour. Cells were washed 3 times and samples were acquired in triplicate on an LSR Fortessa X-20 (BD) with analysis using FlowJo software.

AKT = assay: phosphorylated signaling intermediaries after BCR stimulation: AKT; assay type: cell-based, mouse; conditions: all doses of inhibitor (15, 60, 490 nM), preincubation
Procedure: as §2

BTK = assay: phosphorylated signaling intermediaries after BCR stimulation: BTK; assay type: cell-based, mouse; conditions: all doses of inhibitor (15, 60, 490 nM), preincubation
Procedure: as §2

CD4 T cells = assay: calcium mobilization of CD4 T cells after TCR aggregation; assay type: cell-based, mouse; conditions: 15 nM idelalisib, biotin-anti-CD3 and avidin
Procedure: as §1
Because a therapeutic effect of the inhibitor on VH125.NOD disease progression and survival was observed, reduction in autoantibody responses in PTEN^−/+×SHIP-1^−/+ cells, yet equivalent autoantibody responses by SHP-1^−/− and MD4 B cells in mice receiving 0.9375 mg/kg idelalisib-containing chow, we chose to focus our analysis on effects of this dose on T cell function. […] To analyze in vivo CD4 T cell responses, OT-II CD4 T cells were adoptively transferred into congenically mismatched recipients and immunized with OVA+P:IC as represented diagrammatically in FIG. 6C. […] The transferred OT-II cells that proliferated most underwent the greatest upregulation of CD44 (FIG. 6D).

OT-II CD4 T cells = assay: OT-II CD4 T cell adoptive transfer, response to OVA+P:IC immunization; assay type: in vivo, mouse; conditions: 0.9375 mg/kg chow vs vehicle control, five days post-immunization
Procedure: 2 hours before adoptive transfer, C57BL/6 recipient mice received 200 rads irradiation. […] B cells from donor mice were isolated via depletion of CD43+ cells with anti-CD43-conjugated magnetic beads (MACS anti-mouse CD43; Miltenyi Biotec). Alternatively, CD4+ T cells were isolated via CD4 positive selection (MACS anti-mouse CD4 (L3T4) Miltenyi Biotec). Resultant populations were >97% pure based on flow cytometric analyses. Donor B cells were labeled with either CellTrace Violet (Molecular Probes) or CFSE (Molecular Probes) at 5 μM for 5 minutes at room temperature prior to transfer. Donor CD4 T cells were labeled with CFSE (Molecular Probes) at 5 μM for 5 minutes at room temperature prior to transfer. 1-2×10^6 donor cells in 200 μl PBS were adoptively transferred via IV injection. 24 hours post transfer, tamoxifen was administered to activate Cre. Tamoxifen (Sigma-Aldrich) was dissolved in 100% corn oil (Sigma-Aldrich) at 20 mg/ml. Recipient mice were injected IP with 100 μl (2 mg) on two consecutive days.
Diet dose (DD) is calculated by multiplying the single daily dose (SD) by the body weight of a mouse (BW) and dividing that by the daily food intake (FI) [DD=(SD×BW)/FI].
For VH125.NOD experiments animals are placed on control chow immediately after weaning. […]

With `CC[C@H](Nc1ncnc2nc[nH]c12)c1nc2cccc(F)c2c(=O)n1-c1ccccc1` [idelalisib, 5-fluoro-3-phenyl-2-[(1S)-1-(7H-purin-6-ylamino)propyl]-4(3H)-quinazolinone] as the compound, how does the calcium mobilization [1] read?
Its calcium mobilization is “suppressed”.

And the “phosphorylation of PLCγ” value (PLCγ)?
The value was “significantly reduced”.

And the “phosphorylation of AKT” value (AKT)?
The value was “significantly reduced”.

What about the “phosphorylation of BTK” value (BTK) of the same compound?
Its value is “significantly reduced”.

What about the “calcium mobilization of CD4 T cells” value (CD4 T cells) of the same compound?
Its value is “failed to inhibit”.

What about the “proliferation (CFSE) of OT-II T cells” value (OT-II CD4 T cells) of the same compound?
Its value is “equivalent levels”.

And the “upregulation of the activation marker CD44 on OT-II T cells” value (OT-II CD4 T cells)?
Its value is “equivalent levels”.
